Experiments:
MOLM-16 = MOLM-16 EC50 assay; format: cell-based; details: MOLM16
PIP4K2A = target: T1, PIP4K2A (Homo sapiens, UniProt P48426); assay: Kinase Assay-PIP4K2 A (ADP-Glo); format: biochemical
T1 construct: made in house; host or cells: E. coli
T1 sequence (P48426 1-406): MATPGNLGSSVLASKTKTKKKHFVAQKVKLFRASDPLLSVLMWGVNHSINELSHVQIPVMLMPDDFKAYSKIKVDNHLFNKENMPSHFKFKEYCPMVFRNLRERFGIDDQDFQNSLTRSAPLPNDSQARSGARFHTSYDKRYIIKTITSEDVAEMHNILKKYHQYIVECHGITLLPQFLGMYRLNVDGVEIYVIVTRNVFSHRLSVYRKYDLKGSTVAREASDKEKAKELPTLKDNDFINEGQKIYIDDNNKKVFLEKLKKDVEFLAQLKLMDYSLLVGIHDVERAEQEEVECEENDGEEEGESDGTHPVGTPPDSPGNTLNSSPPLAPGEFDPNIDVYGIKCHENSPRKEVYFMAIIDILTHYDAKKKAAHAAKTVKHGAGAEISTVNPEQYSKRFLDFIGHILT
Experimental: Dilution series of the compounds were prepared in DMSO at 100 times the final assay concentration (n1=n0/3 in 10 points). The compounds were further diluted to three times the assay concentration in assay buffer (20 mM MOPS pH 7.2, 25 mM magnesium chloride, 0.005% Tween 20). 6 μL of the diluted compounds were added to a 384 well assay plate followed by 9 μL of a mix consisting of 4 nM PIP4K2A (full length protein, SignalChem) and 100 μM PI(5)P diC8 (Tebu-Bio). Enzyme and compounds were pre-incubated at room temperature for 15 minutes.
Then 3 μL of a solution containing 60 μM ATP (Promega) in assay buffer was added to the wells containing compound and enzyme and mixing was performed by pipetting several times. The reaction was incubated at room temperature for 1 h. Then 18 μL of ADP-Glo™ Reagent (Promega) was added to stop the kinase reaction and deplete the unconsumed ATP, mixing was performed by pipetting several times. The plate was incubated at room temperature for 40 minutes before addition of 36 μL of Kinase Detection Reagent (Promega) to convert ADP to ATP and introduce luciferase and luciferin to detect ATP. The reaction was incubated at room temperature for 40 minutes before the luminescence was measured in a in a Victor 3V 1420 multilabel counter (Perkin Elmer).
Percent inhibition of the compounds as compared to dimethyl sulfoxide treated control samples was calculated. Compound concentration versus percent inhibition were fitted to generate IC50 values. […]

PIP4K2 B = target: T2, PIP4K2 B (Homo sapiens, UniProt P78356); assay: Kinase Assay-PIP4K2 B (Transcreener FI); format: biochemical
T2 construct: made in house; host or cells: E. coli
T2 sequence (P78356 1-416): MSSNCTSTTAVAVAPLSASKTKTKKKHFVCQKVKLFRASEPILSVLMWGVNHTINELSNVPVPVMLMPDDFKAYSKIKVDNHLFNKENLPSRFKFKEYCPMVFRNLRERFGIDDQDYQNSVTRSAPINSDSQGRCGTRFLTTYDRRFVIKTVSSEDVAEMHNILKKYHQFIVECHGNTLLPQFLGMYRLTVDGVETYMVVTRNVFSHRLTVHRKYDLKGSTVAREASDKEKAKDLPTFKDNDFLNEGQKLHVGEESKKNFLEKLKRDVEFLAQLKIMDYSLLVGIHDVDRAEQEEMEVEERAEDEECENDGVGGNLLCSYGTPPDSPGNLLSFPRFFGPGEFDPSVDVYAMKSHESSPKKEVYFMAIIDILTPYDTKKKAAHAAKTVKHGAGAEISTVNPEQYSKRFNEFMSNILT
Source text: GST tagged PIP4KtypeIIA and B enzymes were overexpressed in E. Coli and purified to >80% homogeneity. Phosphatidyl inositol-5-phosphate (PI5P, Cat. #850152, Avanti Polar Lipids Inc.) was used as the lipid substrate and phosphatidyl ethanolamine (DOPE 18:1, Cat. #850725, Avanti Polar Lipids Inc.) was used as the carrier lipid for assays. Ultrapure ATP and GTP was purchased from Bellbrooke Labs. ADP Glo reagents were obtained from Promega. Transcreener FI reagent was obtained from Bellbrooke labs.
• 1. HEPES buffer mix: 200 mM HEPES pH 7.4, 50 mM MgCl2, 0.05% v/v triton X 100 • 2. HNE buffer: 20 mM HEPES, pH 7.4, 100 mM NaCl, 0.5 mM EGTA • 3. H:E buffer: 30 mM HEPES, pH 7.4, 1 mM EGTA
GST-tagged PIP4KtypeIIB (3.4 μl, 2.77 mg/mL) was diluted to 5 mL using HNE buffer to yield 5× enzyme stock (25 nM)
Lipid Preparation: In a 10 mL pyrex glass vial, […] were suspended in 2.5 mL of HEPES buffer mix and 2.5 mL of H:E buffer. The contents were mixed and sonicated for 3 min to yield a translucent lipid stock.
Compound Preparation: Compounds were stored as 5 mM stocks in neat DMSO as room temperature in glass vials. 5 mM stocks were diluted to 2 mM and then serially diluted (3×) in neat DMSO in 96 well polypropylene plates. From the serially diluted stocks, 3 μL was delivered into 250 μL of 25% DMSO (in water) to generate 5× compound stocks. Typically, the highest compound conc. was 24 μM.
The assay volume was kept at 25 μL. To each well of the reaction plate, 10 μL of lipid stock (1:1 ratio PI5P:DOPE) was delivered. This was followed by the addition of 5 μL of compound in 25% DMSO. Then, to each well, 5 μL of 25 nM (5×) typeIIB enzyme was delivered. The contents were mixed well and incubated for 1 h at 27° C. After 1 h, reaction was initiated by adding 5 μL of 500 μM GTP and the contents were mixed well with a multi-channel pipetteman. The final concentration of the reagents are as follows: 50 mM HEPES, pH 7.3, 10 mM MgCl2, 20 mM NaCl, 0.01% v/v triton-X100, 5% DMSO, 100 μM GTP, 80 μM (2 μg) PI5P, 2 μg DOPE, and 5 nM PIP4KIIB Typically, the highest conc. of compounds was 4.8 μM and the lowest conc. was 0.
After 2 h, the reaction was quenched by adding 25 μL of transcreener FI reagent. The contents were incubated at rt for 1 h and the Fluorescence (Ex: 584 Em: 623) was read using Molecular Devices Paradigm plate reader. […] The blanks were averaged and subtracted from all other wells. Using a calibration curve, RFU was converted to μM GDP (product). IC50 was calculated by plotting the residual activity (expressed as % No inhibitor control) vs. log [Inh. conc.].

EC50 (MOLM-16) [nM]	IC50 (PIP4K2A) [nM]	IC50 (PIP4K2 B) [nM]	Compound
> 1000	≤ 1	≤ 1	O=C(O)CNc1nc(Nc2cnc3c(c2)N2C(=O)CC[C@H]2CO3)ncc1-c1ccc(N2CCCC2=O)cc1 [Compound 1, 2-[(2-{[(6S)-3-oxo-8-oxa-2,10-diazatricyclo[7.4.0.0^2,6]trideca-1(9),10,12-trien-12-yl]amino}-5-[4-(2-oxopyrrolidin-1-yl)phenyl]pyrimidin-4-yl)amino]acetic acid]
> 1000	≤ 1	1 to 10	CN(c1nc(Nc2cnc3c(c2)N2C(=O)CC[C@H]2CO3)ncc1-c1ccc(N2CCCC2=O)cc1)[C@H]1CCOC1 [Compound 2, (6S)-12-[(4-{methyl[(3S)-oxolan-3-yl]amino}-5-[4-(2-oxopyrrolidin-1-yl)phenyl]pyrimidin-2-yl)amino]-8-oxa-2,10-diazatricyclo[7.4.0.0^2,6]trideca-1(13),9,11-trien-3-one]
> 1000	≤ 1	1 to 10	CN(c1nc(Nc2cnc3c(c2)N2C(=O)CC[C@H]2CO3)ncc1-c1ccc(N2CCCC2=O)cc1)C1CCOC1 (stereo partly drawn) [Compound 3, (6S)-12-({4-[methyl(oxolan-3-yl)amino]-5-[4-(2-oxopyrrolidin-1-yl)phenyl]pyrimidin-2-yl}amino)-8-oxa-2,10-diazatricyclo[7.4.0.0^2,6]trideca-1(13),9,11-trien-3-one]
> 1000	1 to 10	1 to 10	CN(c1nc(Nc2cnc3c(c2)N2C(=O)CC[C@H]2CO3)ncc1-c1ccc(N2CCCC2=O)cc1)[C@H]1C[C@H](O)C1 [Compound 4, (6S)-12-[(4-{methyl[(1r,3r)-3-hydroxycyclobutyl]amino}-5-[4-(2-oxopyrrolidin-1-yl)phenyl]pyrimidin-2-yl)amino]-8-oxa-2,10-diazatricyclo[7.4.0.0^2,6]trideca-1(13),9,11-trien-3-one]
10 to 100	1 to 10	1 to 10	COc1nc(Nc2cnc3c(c2)N(C(=O)OCCN(C)C)CCO3)ncc1-c1ccc(N2CCCC2=O)cc1 [Compound 5, 2-(dimethylamino)ethyl 7-({4-methoxy-5-[4-(2-oxopyrrolidin-1-yl)phenyl]pyrimidin-2-yl}amino)-1H,2H,3H-pyrido[2,3-b][1,4]oxazine-1-carboxylate]
10 to 100	1 to 10	1 to 10	O=C1CCCN1c1ccc(-c2cnc(Nc3cnc4c(c3)N3C(=O)CC[C@H]3CO4)nc2OCCN2CCOCC2)cc1 [Compound 6, (6S)-12-({4-[2-(morpholin-4-yl)ethoxy]-5-[4-(2-oxopyrrolidin-1-yl)phenyl]pyrimidin-2-yl}amino)-8-oxa-2,10-diazatricyclo[7.4.0.0^2,6]trideca-1(9),10,12-trien-3-one]
> 1000	1 to 10	1 to 10	CN(c1nc(Nc2cnc3c(c2)N2C(=O)CC[C@H]2CO3)ncc1-c1ccc(N2CCCC2=O)cc1)[C@@H]1CCOC1 [Compound 7, (6S)-12-[(4-{methyl[(3R)-oxolan-3-yl]amino}-5-[4-(2-oxopyrrolidin-1-yl)phenyl]pyrimidin-2-yl)amino]-8-oxa-2,10-diazatricyclo[7.4.0.0^2,6]trideca-1(13),9,11-trien-3-one]
–	10 to 100	10 to 100	COc1nc(Nc2cncc(N3CCC(N(C)C)CC3)c2)ncc1-c1ccc(-c2nnccc2C)cc1 [Compound 17, N-{5-[4-(dimethylamino)piperidin-1-yl]pyridin-3-yl}-4-methoxy-5-[4-(4-methylpyridazin-3-yl)phenyl]pyrimidin-2-amine]
–	10 to 100	10 to 100	CCN(CC)CCOC(=O)N1CCOc2ncc(Nc3ncc(-c4ccc(N5C(=O)CC[C@H]5C)cc4)cn3)cc21 [Compound 22, 2-(diethylamino)ethyl 7-[(5-{4-[(2R)-2-methyl-5-oxopyrrolidin-1-yl]phenyl}pyrimidin-2-yl)amino]-1H,2H,3H-pyrido[2,3-b][1,4]oxazine-1-carboxylate]
–	10 to 100	10 to 100	CCN(CC)CCOC(=O)N1CCOc2ncc(Nc3ncc(-c4ccc(N5CCCC5=O)cc4)cn3)cc21 [Compound 23, 2-(diethylamino)ethyl 7-({5-[4-(2-oxopyrrolidin-1-yl)phenyl]pyrimidin-2-yl}amino)-1H,2H,3H-pyrido[2,3-b][1,4]oxazine-1-carboxylate]
–	100 to 1000	10 to 100	CCN(CC)CCN(C)C(=O)N1CCOc2ncc(Nc3ncc(-c4ccc(N5C(=O)CC[C@H]5C)cc4)c(OC)n3)cc21 [Compound 24, N-[2-(diethylamino)ethyl]-7-[(4-methoxy-5-{4-[(2R)-2-methyl-5-oxopyrrolidin-1-yl]phenyl}pyrimidin-2-yl)amino]-N-methyl-1H,2H,3H-pyrido[2,3-b][1,4]oxazine-1-carboxamide]
–	100 to 1000	100 to 1000	CCN(CC)CCN(C)C(=O)N1CCOc2ncc(Nc3ncc(-c4ccc(N5C(=O)CC[C@H]5C)cc4)cn3)cc21 [Compound 25, N-[2-(diethylamino)ethyl]-N-methyl-7-[(5-{4-[(2R)-2-methyl-5-oxopyrrolidin-1-yl]phenyl}pyrimidin-2-yl)amino]-1H,2H,3H-pyrido[2,3-b][1,4]oxazine-1-carboxamide]
–	> 1000	> 1000	CP(C)(=O)c1ccc(-c2ccc(Nc3cnc4c(c3)N3C(=O)CC[C@H]3CO4)nc2)cc1 [Compound 27, (6S)-12-({5-[4-(dimethylphosphoryl)phenyl]pyridin-2-yl}amino)-8-oxa-2,10-diazatricyclo[7.4.0.0^2,6]trideca-1(9),10,12-trien-3-one]

— US12006332B2, “Aminopyrimidine derivatives as phosphatidylinositol phosphate kinase inhibitors” (HiberCell, Inc., priority 2019, dated 2024)
